Reference: patent US11078228B2, “Ectonucleotidase inhibitors and methods of use thereof” (Calithera Biosciences, Inc., priority 2018, dated 2021)

Molecular target: recombinant CD73 (Homo sapiens (Human), UniProt P21589)
Test: Assay 2: Inhibition of the CD73 enzyme in vitro (0.05 nM CD73, 1 hour 37° C., Malachite Green)
Format: biochemical
Settings: 0.05 nM CD73, 50 μM AMP, 1 hour at 37° C.
Outline: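 Soluble recombinant CD73 reactions ran 1 hour at 37° C. Malachite Green was then added, and absorbance at 630 nm was read after 5 min at room temperature. Inorganic phosphate was quantified from a phosphate standard curve.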

recombinant CD73, sequence (P21589 27-547): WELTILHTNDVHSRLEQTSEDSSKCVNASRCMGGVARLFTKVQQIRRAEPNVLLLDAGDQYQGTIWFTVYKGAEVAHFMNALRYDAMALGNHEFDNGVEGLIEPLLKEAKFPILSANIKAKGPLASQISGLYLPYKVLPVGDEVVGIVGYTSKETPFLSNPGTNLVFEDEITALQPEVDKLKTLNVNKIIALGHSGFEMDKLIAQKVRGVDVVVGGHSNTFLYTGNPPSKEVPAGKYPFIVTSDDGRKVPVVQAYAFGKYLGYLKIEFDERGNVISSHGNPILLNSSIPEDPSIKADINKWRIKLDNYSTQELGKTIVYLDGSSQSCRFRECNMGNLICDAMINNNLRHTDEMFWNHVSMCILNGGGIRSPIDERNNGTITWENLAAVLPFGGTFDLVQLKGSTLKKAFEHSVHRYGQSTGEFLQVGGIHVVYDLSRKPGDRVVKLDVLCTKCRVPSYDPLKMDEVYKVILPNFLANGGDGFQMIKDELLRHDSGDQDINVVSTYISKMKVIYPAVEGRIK

IC50 [nM] | Compound
3 | C#C[C@@]1(O)[C@@H](COC(Cc2ccccc2)(C(=O)O)C(=O)OCC)O[C@@H](n2cnc3c(NCc4ccccc4Cl)nc(Cl)nc32)[C@@H]1O (stereo partly drawn) [Example 108, 2-benzyl-2-(((2R,3S,4R,5R)-5-(2-chloro-6-((2-chlorobenzyl)amino)-9H-purin-9-yl)-3-ethynyl-3,4-dihydroxytetrahydrofuran-2-yl)methoxy)-3-ethoxy-3-oxopropanoic acid]
284 | C#C[C@@]1(O)[C@@H](COC(Cc2ccccc2)(C(=O)O)C(=O)OCC)O[C@@H](n2cnc3c(NCc4ccncc4)nc(Cl)nc32)[C@@H]1O (stereo partly drawn) [Example 109, 2-benzyl-2-(((2R,3S,4R,5R)-5-(2-chloro-6-((pyridin-4-ylmethyl)amino)-9H-purin-9-yl)-3-ethynyl-3,4-dihydroxytetrahydrofuran-2-yl)methoxy)-3-ethoxy-3-oxopropanoic acid]
3 | C#C[C@@]1(O)[C@@H](COC(Cc2cc(C)on2)(C(=O)O)C(=O)O)O[C@@H](n2cnc3c(NC(C)C)nc(Cl)nc32)[C@@H]1O [Example 110, 2-(((2R,3S,4R,5R)-5-(2-chloro-6-(isopropylamino)-9H-purin-9-yl)-3-ethynyl-3,4-dihydroxytetrahydrofuran-2-yl)methoxy)-2-((5-methylisoxazol-3-yl)methyl)malonic acid]
2670 | C#C[C@@]1(O)[C@@H](COC(Cc2cc(C)on2)(C(=O)O)C(=O)O)O[C@@H](n2cnc3c(NCc4ccc(F)cc4)nc(Cl)nc32)[C@@H]1O [Example 111, 2-(((2R,3S,4R,5R)-5-(2-chloro-6-((4-fluorobenzyl)amino)-9H-purin-9-yl)-3-ethynyl-3,4-dihydroxytetrahydrofuran-2-yl)methoxy)-2-((5-methylisoxazol-3-yl)methyl)malonic acid]
1360 | C#C[C@@]1(O)[C@@H](COC(Cc2nc3ccccc3s2)(C(=O)O)C(=O)O)O[C@@H](n2cnc3c(NCc4ccc(F)cc4)nc(Cl)nc32)[C@@H]1O [Example 112, 2-(benzo[d]thiazol-2-ylmethyl)-2-(((2R,3S,4R,5R)-5-(2-chloro-6-((4-fluorobenzyl)amino)-9H-purin-9-yl)-3-ethynyl-3,4-dihydroxytetrahydrofuran-2-yl)methoxy)malonic acid]
58 | C#C[C@@]1(O)[C@@H](COC(C(=O)O)C(=O)O)O[C@@H](n2cnc3c(NC)nc(Cl)nc32)[C@@H]1O [Example 117, 2-(((2R,3S,4R,5R)-5-(2-chloro-6-(methylamino)-9H-purin-9-yl)-3-ethynyl-3,4-dihydroxytetrahydrofuran-2-yl)methoxy)malonic acid]
48 | C#C[C@@]1(O)[C@@H](COC(C(=O)O)C(=O)O)O[C@@H](n2cnc3c(NCc4ccccc4)nc(Cl)nc32)[C@@H]1O [Example 118, 2-(((2R,3S,4R,5R)-5-(6-(benzylamino)-2-chloro-9H-purin-9-yl)-3-ethynyl-3,4-dihydroxytetrahydrofuran-2-yl)methoxy)malonic acid]
4610 | C#C[C@@]1(O)[C@@H](COC(C(=O)O)S(=O)(=O)c2ccccc2)O[C@@H](n2cnc3c(N4CCOCC4)nc(Cl)nc32)[C@@H]1O (stereo partly drawn) [Example 119, 2-(((2R,3S,4R,5R)-5-(2-chloro-6-morpholino-9H-purin-9-yl)-3-ethynyl-3,4-dihydroxytetrahydrofuran-2-yl)methoxy)-2-(phenylsulfonyl)acetic acid]
1710 | C#C[C@@]1(O)[C@@H](COC(Cc2ccccc2)(C(=O)O)C(=O)OCC)O[C@@H](n2cnc3c(N)nc(C(N)=O)nc32)[C@@H]1O (stereo partly drawn) [Example 121, 2-(((2R,3S,4R,5R)-5-(6-amino-2-carbamoyl-9H-purin-9-yl)-3-ethynyl-3,4-dihydroxytetrahydrofuran-2-yl)methoxy)-2-benzyl-3-ethoxy-3-oxopropanoic acid]
40 | C#C[C@@]1(O)[C@@H](COC(Cc2ccccc2)(C(=O)O)C(=O)O)O[C@@H](n2cnc3c(N)nc(C(N)=O)nc32)[C@@H]1O [Example 122, 2-(((2R,3S,4R,5R)-5-(6-amino-2-carbamoyl-9H-purin-9-yl)-3-ethynyl-3,4-dihydroxytetrahydrofuran-2-yl)methoxy)-2-benzylmalonic acid]
235 | C#C[C@@]1(O)[C@@H](COC(Cc2ccccc2)(C(=O)O)C(=O)O)O[C@@H](n2cnc3ccc(C(F)(F)F)nc32)[C@@H]1O [Example 125, 2-benzyl-2-(((2R,3S,4R,5R)-3-ethynyl-3,4-dihydroxy-5-(5-(trifluoromethyl)-3H-imidazo[4,5-b]pyridin-3-yl)tetrahydrofuran-2-yl)methoxy)malonic acid]
9 | C#C[C@@]1(O)[C@@H](COC(Cc2cscn2)(C(=O)O)C(=O)O)O[C@@H](n2cnc3c(N)nc(Cl)nc32)[C@@H]1O [Example 126, 2-(((2R,3S,4R,5R)-5-(6-amino-2-chloro-9H-purin-9-yl)-3-ethynyl-3,4-dihydroxytetrahydrofuran-2-yl)methoxy)-2-(thiazol-4-ylmethyl)malonic acid]
170 | C#C[C@@]1(O)[C@@H](COC(Cc2ccccc2)(C(=O)O)C(=O)O)O[C@@H](n2cnc3c(N)nc(C(C)=O)nc32)[C@@H]1O [Example 127, 2-(((2R,3S,4R,5R)-5-(2-acetyl-6-amino-9H-purin-9-yl)-3-ethynyl-3,4-dihydroxytetrahydrofuran-2-yl)methoxy)-2-benzylmalonic acid]
6 | C#C[C@@]1(O)[C@@H](COC(Cc2cccs2)(C(=O)O)C(=O)O)O[C@@H](n2cnc3c(N)nc(Cl)nc32)[C@@H]1O [Example 128, 2-(((2R,3S,4R,5R)-5-(6-amino-2-chloro-9H-purin-9-yl)-3-ethynyl-3,4-dihydroxytetrahydrofuran-2-yl)methoxy)-2-(thiophen-2-ylmethyl)malonic acid]
0.36 | C#C[C@@]1(O)[C@@H](COC(Cc2ccc(-c3cccn(CC)c3=O)cc2)(C(=O)O)C(=O)O)O[C@@H](n2cnc3c(NC)nc(Cl)nc32)[C@@H]1O [Example 130, 2-(((2R,3S,4R,5R)-5-(2-chloro-6-(methylamino)-9H-purin-9-yl)-3-ethynyl-3,4-dihydroxytetrahydrofuran-2-yl)methoxy)-2-(4-(1-ethyl-2-oxo-1,2-dihydropyridin-3-yl)benzyl)malonic acid]
> 100 | C#C[C@@]1(O)[C@@H](COC(Cc2ccc(N3CCCNC3=O)cc2)(C(=O)O)C(=O)O)O[C@@H](n2nc(C)c3ccc(Cl)nc32)[C@@H]1O [Example 131, 2-(((2R,3S,4R,5R)-5-(6-chloro-3-methyl-1H-pyrazolo[3,4-b]pyridin-1-yl)-3-ethynyl-3,4-dihydroxytetrahydrofuran-2-yl)methoxy)-2-(4-(2-oxotetrahydropyrimidin-1(2H)-yl)benzyl)malonic acid]
7 | C#C[C@@]1(O)[C@@H](COC(Cc2ccc(N3CCCNC3=O)cc2)(C(=O)O)C(=O)O)O[C@@H](n2cc(C)c(=O)[nH]c2=O)[C@@H]1O [Example 133, 2-(((2R,3S,4R,5R)-3-ethynyl-3,4-dihydroxy-5-(5-methyl-2,4-dioxo-3,4-dihydropyrimidin-1 (2H)-yl)tetrahydrofuran-2-yl)methoxy)-2-(4-(2-oxotetrahydropyrimidin-1 (2H)-yl)benzyl)malonic acid]
16 | C#C[C@@]1(O)[C@@H](COC(Cc2ccc(N3CCCNC3=O)cc2)(C(=O)O)C(=O)O)O[C@@H](n2ccc(=O)[nH]c2=O)[C@@H]1O [Example 134, 2-(((2R,3S,4R,5R)-5-(2,4-dioxo-3,4-dihydropyrimidin-1(2H)-yl)-3-ethynyl-3,4-dihydroxytetrahydrofuran-2-yl)methoxy)-2-(4-(2-oxotetrahydropyrimidin-1 (2H)-yl)benzyl)malonic acid]
91 | C#C[C@@]1(O)[C@@H](COC(Cc2ccc(N3CCCNC3=O)cc2)(C(=O)O)C(=O)O)O[C@@H](n2ccc(N)nc2=O)[C@@H]1O [Example 135, 2-(((2R,3S,4R,5R)-5-(4-amino-2-oxopyrimidin-1(2H)-yl)-3-ethynyl-3,4-dihydroxytetrahydrofuran-2-yl)methoxy)-2-(4-(2-oxotetrahydropyrimidin-1 (2H)-yl)benzyl)malonic acid]
0.24 | C#C[C@@]1(O)[C@@H](COC(Cc2ccc(N3CCCNC3=O)cc2)(C(=O)O)C(=O)O)O[C@@H](n2cnc3c(NCC4CC4)nc(Cl)nc32)[C@@H]1O [Example 136, 2-(((2R,3S,4R,5R)-5-(2-chloro-6-((cyclopropylmethyl)amino)-9H-purin-9-yl)-3-ethynyl-3,4-dihydroxytetrahydrofuran-2-yl)methoxy)-2-(4-(2-oxotetrahydropyrimidin-1(2H)-yl)benzyl)malonic acid]
0.31 | C#C[C@@]1(O)[C@@H](COC(Cc2ccc(N3CCCN(CCO)C3=O)cc2)(C(=O)O)C(=O)O)O[C@@H](n2cnc3c(NC)nc(Cl)nc32)[C@@H]1O [Example 137, 2-(((2R,3S,4R,5R)-5-(2-chloro-6-(methylamino)-9H-purin-9-yl)-3-ethynyl-3,4-dihydroxytetrahydrofuran-2-yl)methoxy)-2-(4-(3-(2-hydroxyethyl)-2-oxotetrahydropyrimidin-1 (2H)-yl)benzyl)malonic acid]
0.15 | C#C[C@@]1(O)[C@@H](COC(Cc2ccc(N3CCCN(CCO)C3=O)cc2)(C(=O)O)C(=O)O)O[C@@H](n2cnc3c(NCC4CC4)nc(Cl)nc32)[C@@H]1O [Example 138, 2-(((2R,3S,4R,5R)-5-(2-chloro-6-((cyclopropylmethyl)amino)-9H-purin-9-yl)-3-ethynyl-3,4-dihydroxytetrahydrofuran-2-yl)methoxy)-2-(4-(3-(2-hydroxyethyl)-2-oxotetrahydropyrimidin-1 (2H)-yl)benzyl)malonic acid]
0.13 | C#C[C@@]1(O)[C@@H](COC(Cc2ccc(N3CCCN(CCO)C3=O)cc2)(C(=O)O)C(=O)O)O[C@@H](n2cnc3c(NC(C)C)nc(Cl)nc32)[C@@H]1O [Example 139, 2-(((2R,3S,4R,5R)-5-(2-chloro-6-(isopropylamino)-9H-purin-9-yl)-3-ethynyl-3,4-dihydroxytetrahydrofuran-2-yl)methoxy)-2-(4-(3-(2-hydroxyethyl)-2-oxotetrahydropyrimidin-1 (2H)-yl)benzyl)malonic acid]
